Results: patent US8247442B2, “Benzenesulfonamide compounds and their use” (Purdue Pharma L.P., priority 2006, dated 2012)

Experiments:
[1] = molecular target: T1, N-type calcium channel (NTCC) (Homo sapiens, UniProt Q00975); test: FLIPR calcium mobilization assay for N-type calcium channel; assay type: cell-based; conditions: calcium mobilization in vitro assay; differentiated IMR32 cells, 90 mM KCl, 5 μM nitrendipine
T1 construct: endogenous in cells; host or cells: IMR32 cells (ATCC), differentiated with dibutyryl cAMP and bromodeoxyuridine
Experimental: Cell maintenance and differentiation. Unless noted otherwise, cell culture reagents were purchased from Mediatech of Hemdon, Md. IMR32 cells (American Type Culture Collection, ATCC, Manassas, Va.) were routinely cultured in growth medium consisting of minimum essential medium containing 10% fetal bovine serum (FBS, Hyclone, Logan, Utah), 100 U/mL penicillin, 100 μg/mL streptomycin, 2 mM L-glutamine, 1 mM sodium pyruvate, and 1×MEM non-essential amino acids. 80-90% confluent flasks of cells were differentiated using the following differentiation medium: Growth medium plus 1 mM dibutyryl cyclic AMP (Sigma, St. Louis, Mo.), and 2.5 μM bromodeoxyuridine (Sigma). Cells were differentiated for 8 days by replacing differentiation medium every 2-3 days.
FLIPR Calcium Mobilization Assay for N-type Calcium Channel. One day prior to performing this assay, differentiated IMR32 cells were treated with 1× CellStripper, and seeded on poly-D-lysine-coated 96-well clear-bottom black plates (Becton Dickinson, Franklin Lakes, N.J.) at 200,000 cells/well. On the day of the assay, the cell plates were washed with IMR32 buffer (127 mM NaCl, 1 mM KCl, 2 mM MgCl2, 700 μM NaH2PO4, 5 mM CaCl2, 5 mM NaHCO3, 8 mM HEPES, 10 mM glucose, pH 7.4), then pre-stimulated with KCl and loaded as follows: 0.05 mL of IMR32 buffer, 0.05 mL of each compound tested diluted in IMR32 buffer containing 20 μM nitrendipine (Sigma), and 0.1 mL KCl dissolved in IMR32 buffer, plus Fluo-4 were added (3 μM final concentration, Molecular Probes, Eugene, Oreg.). Final test compound concentrations ranged from about 846 μM to about 17 μM, final nitrendipine concentration was 5 μM, and final KCl concentration was 90 mM. After 1 hour, the cells were washed twice with 0.05 mL of each compound tested in nitrendipine-containing IMR32 buffer (no KCl or Fluo-4), and then replaced with 0.1 mL of each compound tested in nitrendipine-containing IMR32 buffer. Plates were then transferred to a Fluorimetric Imaging Plate Reader (FLIPR^96, Molecular Devices, Inc., Sunnyvale, Calif.) for assay. The FLIPR measured basal Fluo-4 fluorescence for 315 seconds (i.e., 5 minutes and 15 seconds), then added 0.1 mL KCl agonist dissolved in IMR32 buffer and measured fluorescence for another 45 seconds. Final test compound concentrations on the cells after FLIPR read ranged from about 846 μM to about 17 μM, final nitrendipine concentration was 5 μM, and final KCl concentration was 90 mM. Data were collected over the entire time course and analyzed using Excel, Graph Pad Prism (version 3.02, Graph Pad, San Diego, Calif.), or an in-house non-linear regression analysis software.

[2] = molecular target: T2, recombinant rat L-type calcium channel (LTCC) subunits (α1c, α2δ, and β1) (Rattus norvegicus, UniProt P22002); test: FLIPR calcium mobilization assay for L-type calcium channel; assay type: cell-based; conditions: calcium mobilization in vitro assay; HEK293 cells stably expressing LTCC, 90 mM KCl
T2 construct: expressed in transfected cells; pcDNA6.2DEST α1c, pcDNA3.2DEST β1, pcDNA3.1-Zeo α2δ)
Experimental: Recombinant human embryonal kidney cells (HEK293, ATCC) stably transfected with either N-type calcium channel (NTCC) subunits (α1b, α2δ, and β3) or L-type calcium channel (LTCC) subunits (α1c, α2δ, and β1) were routinely cultured in growth medium consisting of Dulbecco's Modified Eagles Medium containing 10% FBS, 100 U/mL penicillin, 100 μg/mL streptomycin, 4 mM L-glutamine, 500 μg/mL geneticin (G418), 20 μg/mL Blasticidin S (InVivogen, San Diego, Calif.) and 500 μg/mL zeocin (InVivogen).
FLIPR Calcium Mobilization Assay for L-type Calcium Channel. One day prior to performing this assay, HEK293 cells stably expressing recombinant rat L-type calcium channel (LTCC) subunits (α1c, α2δ, and β1) were trypsinized, then seeded on poly-D-lysine-coated 96-well clear-bottom black plates (Becton Dickinson, Franklin Lakes, N.J.) at 75,000 cells/well. On the day of the assay, the plates were washed with LTCC wash buffer (127 mM NaCl, 2 mM MgCl2, 700 μM NaH2PO4, 5 mM CaCl2, 5 mM NaHCO3, 8 mM HEPES, 10 mM glucose, pH 7.4), then loaded with 0.1 mL of LTCC wash buffer containing Fluo-4 (3 μM final concentration, Molecular Probes, Eugene, Oreg.). After 1 hour, the cells were washed with 0.1 mL LTCC wash buffer and resuspended in 0.05 mL LTCC assay buffer (same composition as LTCC wash buffer). Plates were then transferred to a FLIPR^96 for assay. The FLIPR measured basal Fluo-4 fluorescence for 15 seconds, then added 0.05 mL of each compound tested diluted in LTCC assay buffer at final concentrations ranging from about 846 pM to about 17 μM. Fluo-4 fluorescence was then measured for 5 minutes. 0.1 mL KCl agonist dissolved in LTCC assay buffer was then added to the cells to produce a final concentration of 90 mM KCl, and fluorescence was measured for another 45 seconds. Data were collected over the entire time course and analyzed using Excel, Graph Pad Prism, or an in-house regression analysis software.
L-type Recombinant Cell Line Development. L-type calcium channel expressing HEK-293 cells were created in two stages. Stage 1 was created as follows. The rat α1c, and β1 cDNA expression constructs (2.5 μg each) were co-transfected into human embryonic kidney (HEK-293) cells by Lipofectamine Plus reagent (Invitrogen), as per manufacturer's instructions. 24 hours later, cells were split in limiting dilution into multiple 96-well plates in selection media containing 20 μg/mL blasticidin and 500 μg/mL geneticin, and incubated for 3 weeks at 37° C., 5% CO2, 95% humidity. Plates containing ≦1 clone per well were cultured until wells positive for single clones were confluent. Individual clones were then arrayed into columns of a destination 96-well plate, and partly split into 6-well plates for culture maintenance. Array plates were washed once with LTCC wash (or assay) buffer and cells loaded for 1 hour with 0.1 mL of LTCC buffer containing Fluo-4 (3 μM final concentration, Molecular Probes). Then they were washed twice with 0.1 mL of LTCC buffer, and replaced with 0.1 mL LTCC buffer. Plates were then transferred to a FLIPR^96 for assay. The FLIPR measured basal Fluo-4 fluorescence for 315 seconds, then added 0.1 mL KCl agonist dissolved in LTCC buffer and measured fluorescence for another 45 seconds. Final KCl concentration was 90 mM. Data were collected over the entire time course and analyzed using Excel, Graph Pad Prism, or Activity Base software. The clone with the greatest signal-to-noise ratio, best stability of response with passage number, and best adhesion to PDL precoated plates (Becton Dickinson) was expanded, characterized and used for stage 2 cell line development.
Stage 2 of L-type cell line development was carried out as follows. The rat α2δ cDNA expression construct (5 μg each) was transfected into the stage 1 L-type clonal cell line by Lipofectamine Plus reagent (Invitrogen), as per manufacturer's instructions. […]

T1 sequence (Q00975 whole entry): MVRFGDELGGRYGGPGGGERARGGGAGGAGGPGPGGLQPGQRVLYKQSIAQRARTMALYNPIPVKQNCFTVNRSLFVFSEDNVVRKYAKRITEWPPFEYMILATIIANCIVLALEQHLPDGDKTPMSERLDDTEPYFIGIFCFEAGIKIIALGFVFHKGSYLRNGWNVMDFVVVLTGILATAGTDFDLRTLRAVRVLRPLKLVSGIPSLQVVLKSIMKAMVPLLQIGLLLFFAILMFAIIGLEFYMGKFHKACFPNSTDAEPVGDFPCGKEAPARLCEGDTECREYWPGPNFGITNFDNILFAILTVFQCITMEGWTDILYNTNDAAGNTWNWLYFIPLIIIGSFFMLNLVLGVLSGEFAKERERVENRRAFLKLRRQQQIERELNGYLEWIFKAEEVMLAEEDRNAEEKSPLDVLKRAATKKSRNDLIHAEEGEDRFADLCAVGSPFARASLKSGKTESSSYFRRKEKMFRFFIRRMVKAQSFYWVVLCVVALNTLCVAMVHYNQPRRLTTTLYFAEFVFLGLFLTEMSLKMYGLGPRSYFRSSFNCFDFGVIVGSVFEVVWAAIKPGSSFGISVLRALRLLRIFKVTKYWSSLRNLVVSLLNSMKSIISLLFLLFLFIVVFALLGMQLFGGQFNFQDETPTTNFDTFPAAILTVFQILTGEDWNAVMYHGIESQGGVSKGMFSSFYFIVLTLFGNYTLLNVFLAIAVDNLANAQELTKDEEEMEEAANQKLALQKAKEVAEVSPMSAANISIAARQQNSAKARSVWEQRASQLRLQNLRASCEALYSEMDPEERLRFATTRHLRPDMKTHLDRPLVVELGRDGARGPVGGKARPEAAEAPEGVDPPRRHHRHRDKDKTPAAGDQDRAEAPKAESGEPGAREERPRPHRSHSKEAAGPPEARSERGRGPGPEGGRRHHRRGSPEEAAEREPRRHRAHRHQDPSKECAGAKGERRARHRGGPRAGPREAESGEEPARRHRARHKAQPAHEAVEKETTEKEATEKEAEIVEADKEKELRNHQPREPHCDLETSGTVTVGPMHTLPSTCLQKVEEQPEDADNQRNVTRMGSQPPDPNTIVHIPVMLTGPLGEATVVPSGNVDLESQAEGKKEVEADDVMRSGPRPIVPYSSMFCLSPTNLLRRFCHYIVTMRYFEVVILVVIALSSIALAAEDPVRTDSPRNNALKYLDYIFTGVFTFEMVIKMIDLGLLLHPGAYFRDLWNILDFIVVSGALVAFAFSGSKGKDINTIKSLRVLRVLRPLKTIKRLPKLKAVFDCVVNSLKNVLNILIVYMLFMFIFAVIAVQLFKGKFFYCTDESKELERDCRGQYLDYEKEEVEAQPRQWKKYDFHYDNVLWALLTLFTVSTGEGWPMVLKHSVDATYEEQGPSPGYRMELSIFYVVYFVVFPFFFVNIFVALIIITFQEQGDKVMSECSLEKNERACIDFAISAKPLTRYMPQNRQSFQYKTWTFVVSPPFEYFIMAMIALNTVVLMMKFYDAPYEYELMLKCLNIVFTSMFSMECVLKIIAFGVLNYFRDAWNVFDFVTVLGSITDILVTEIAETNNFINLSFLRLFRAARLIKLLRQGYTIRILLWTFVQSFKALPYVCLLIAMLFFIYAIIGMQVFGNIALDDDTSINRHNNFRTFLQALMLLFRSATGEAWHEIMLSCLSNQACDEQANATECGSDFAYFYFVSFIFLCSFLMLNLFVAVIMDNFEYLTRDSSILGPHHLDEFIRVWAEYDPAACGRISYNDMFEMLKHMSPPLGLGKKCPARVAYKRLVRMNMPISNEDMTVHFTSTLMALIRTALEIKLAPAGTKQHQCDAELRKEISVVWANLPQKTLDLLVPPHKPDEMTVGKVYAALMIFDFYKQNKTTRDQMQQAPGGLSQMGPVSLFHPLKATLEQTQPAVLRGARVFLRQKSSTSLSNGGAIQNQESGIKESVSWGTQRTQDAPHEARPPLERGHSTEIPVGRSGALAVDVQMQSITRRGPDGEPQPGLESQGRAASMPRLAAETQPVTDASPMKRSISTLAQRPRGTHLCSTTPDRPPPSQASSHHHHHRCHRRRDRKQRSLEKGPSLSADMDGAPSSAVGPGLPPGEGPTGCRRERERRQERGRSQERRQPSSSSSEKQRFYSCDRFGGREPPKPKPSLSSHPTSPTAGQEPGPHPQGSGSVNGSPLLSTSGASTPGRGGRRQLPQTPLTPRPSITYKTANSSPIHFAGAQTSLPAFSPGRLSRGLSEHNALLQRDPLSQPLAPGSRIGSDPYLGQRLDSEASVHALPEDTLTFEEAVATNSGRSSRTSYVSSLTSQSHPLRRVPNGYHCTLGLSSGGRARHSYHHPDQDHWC
T1 sequence (P54289 25-956 partner limits assumed): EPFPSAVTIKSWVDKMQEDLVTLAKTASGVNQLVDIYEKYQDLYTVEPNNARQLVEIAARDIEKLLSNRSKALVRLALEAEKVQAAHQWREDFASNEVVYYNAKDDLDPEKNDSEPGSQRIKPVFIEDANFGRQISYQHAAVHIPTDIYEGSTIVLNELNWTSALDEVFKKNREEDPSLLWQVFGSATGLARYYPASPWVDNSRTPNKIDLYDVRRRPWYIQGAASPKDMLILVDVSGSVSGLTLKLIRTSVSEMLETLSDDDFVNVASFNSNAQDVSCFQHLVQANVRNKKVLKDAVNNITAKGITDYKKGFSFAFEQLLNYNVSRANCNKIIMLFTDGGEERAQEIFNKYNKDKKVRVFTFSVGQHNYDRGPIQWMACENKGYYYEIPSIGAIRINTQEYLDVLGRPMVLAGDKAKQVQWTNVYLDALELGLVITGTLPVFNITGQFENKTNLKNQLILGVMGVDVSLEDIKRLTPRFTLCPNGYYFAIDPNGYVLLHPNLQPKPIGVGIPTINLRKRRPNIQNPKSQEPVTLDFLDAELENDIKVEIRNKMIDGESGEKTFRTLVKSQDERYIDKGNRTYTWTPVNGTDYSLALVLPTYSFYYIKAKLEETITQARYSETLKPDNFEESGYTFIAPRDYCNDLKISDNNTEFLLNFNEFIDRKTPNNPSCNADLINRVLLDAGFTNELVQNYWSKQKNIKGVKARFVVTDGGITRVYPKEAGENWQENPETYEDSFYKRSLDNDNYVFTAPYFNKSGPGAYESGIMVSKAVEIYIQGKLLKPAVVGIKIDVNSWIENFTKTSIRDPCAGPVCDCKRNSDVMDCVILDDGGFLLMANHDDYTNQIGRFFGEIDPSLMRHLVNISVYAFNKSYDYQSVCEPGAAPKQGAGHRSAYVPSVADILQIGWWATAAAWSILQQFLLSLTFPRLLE
T1 sequence (P54289 957-1103 partner limits assumed): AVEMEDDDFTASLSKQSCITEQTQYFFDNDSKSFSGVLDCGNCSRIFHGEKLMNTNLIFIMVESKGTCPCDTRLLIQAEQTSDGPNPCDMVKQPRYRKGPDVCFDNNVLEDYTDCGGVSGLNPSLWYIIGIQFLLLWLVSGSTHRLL
T1 sequence (P54284 whole entry partner): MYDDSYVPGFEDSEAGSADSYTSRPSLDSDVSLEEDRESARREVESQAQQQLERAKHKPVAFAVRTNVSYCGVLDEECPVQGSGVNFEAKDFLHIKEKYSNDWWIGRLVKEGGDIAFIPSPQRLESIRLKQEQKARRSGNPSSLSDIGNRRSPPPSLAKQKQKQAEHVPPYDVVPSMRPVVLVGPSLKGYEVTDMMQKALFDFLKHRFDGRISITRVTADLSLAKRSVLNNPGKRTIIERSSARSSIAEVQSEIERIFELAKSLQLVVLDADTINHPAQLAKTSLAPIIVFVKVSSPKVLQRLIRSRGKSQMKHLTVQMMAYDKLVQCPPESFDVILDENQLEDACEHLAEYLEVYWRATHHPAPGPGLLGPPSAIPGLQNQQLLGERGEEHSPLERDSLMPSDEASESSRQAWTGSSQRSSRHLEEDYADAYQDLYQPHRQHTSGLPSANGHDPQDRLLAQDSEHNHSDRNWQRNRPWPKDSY

Row | Molecule | IC50 [1] [nM] | IC50 [2] [nM]
1 | CC(C)C[C@H](NC(C)C)C(=O)N1CCCC(N(C2CC2)S(=O)(=O)c2cccc(C(F)(F)F)c2)C1 (stereo partly drawn) [(2S)N-Cyclopropyl-N-[1-(2-isopropylamino-4-methylpentanoyl)piperidin-3-yl]-3-trifluoromethylbenzenesulfonamide] | 210 | 
2 | O=C(CCNCCO)N1CCCC(N(C2CC2)S(=O)(=O)c2cccc(C(F)(F)F)c2)C1 (stereo not drawn) [N-Cyclopropyl-N-{1-[3-(2-hydroxyethylamino)propionyl]piperidin-3-yl}-3-trifluoromethylbenzenesulfonamide] | 2830 | 
3 | CN[C@@H](CC(C)C)C(=O)N1CCCC(N(C2CC2)S(=O)(=O)c2cccc(C(F)(F)F)c2)C1 (stereo partly drawn) [(2S)N-Cyclopropyl-N-[1-(4-methyl-2-methylaminopentanoyl)-piperidin-3-yl]-3-trifluoromethylbenzenesulfonamide] | 540 | 6580
4 | CC(C)CNCCC(=O)N1CCCC(N(C2CC2)S(=O)(=O)c2cccc(C(F)(F)F)c2)C1 (stereo not drawn) [N-Cyclopropyl-N-[1-(3-isobutylaminopropionyl)piperidin-3-yl]-3-trifluoromethylbenzenesulfonamide] | 820 | 5630
5 | COc1ccc(CNCC(=O)N2CCCC(N(C3CC3)S(=O)(=O)c3cccc(C(F)(F)F)c3)C2)cc1 (stereo not drawn) [N-Cyclopropyl-N-{1-[2-(4-methoxybenzylamino)acetyl]-piperidin-3-yl}-3-trifluoromethylbenzenesulfonamide] | 420 | 4650
6 | O=C(CNCc1cccnc1)N1CCCC(N(C2CC2)S(=O)(=O)c2cccc(C(F)(F)F)c2)C1 (stereo not drawn) [N-Cyclopropyl-N-(1-{2-[(pyridin-3-ylmethyl)amino]acetyl}-piperidin-3-yl)-3-trifluoromethylbenzenesulfonamide] | 1200 | > 20000
7 | O=C(CN1CCCC(N(C2CC2)S(=O)(=O)c2cccc(C(F)(F)F)c2)C1)Nc1ccc(F)cc1 (stereo not drawn) [2-{3-[Cyclopropyl-(3-trifluoromethylbenzenesulfonyl)amino]-piperidin-1-yl}-N-(4-fluorophenyl)-acetamide] | 360 | 6180
8 | CC(C)CNC(=O)CN1CCCC(N(C2CC2)S(=O)(=O)c2cccc(C(F)(F)F)c2)C1 (stereo not drawn) [2-{3-[Cyclopropyl-(3-trifluoromethylbenzenesulfonyl)-amino]-piperidin-1-yl}-N-isobutyl-acetamide] | 430 | 9820
9 | CCN[C@@H](CC(C)C)C(=O)N1CCCC(N(C2CC2)S(=O)(=O)c2cccc(C(F)(F)F)c2)C1 (stereo partly drawn) [(2S)N-Cyclopropyl-N-[1-(2-ethylamino-4-methylpentanoyl)piperidin-3-yl]-3-trifluoromethylbenzenesulfonamide] | 130 | 5070
10 | CC(C)C[C@H](N)CC(=O)N1CCCC(N(C2CC2)S(=O)(=O)c2cccc(C(F)(F)F)c2)C1 (stereo partly drawn) [(2S)N-[1-(3-Amino-5-methylhexanoyl)piperidin-3-yl]-N-cyclopropyl-3-trifluoromethylbenzenesulfonamide] | 280 | 500
11 | CC(C)C[C@H](N)C(=O)N1CCCC(N(C2CC2)S(=O)(=O)c2cccc(C(F)(F)F)c2)C1 (stereo partly drawn) [(2S)N-[1-(2-Amino-4-methylpentanoyl)piperidin-3-yl]-N-cyclopropyl-3-trifluoromethylbenzenesulfonamide] | 1100 | 6580
12 | O=C(CN1CCC(NS(=O)(=O)c2cccc(C(F)(F)F)c2)C1)Nc1ccc(F)cc1 (stereo not drawn) [N-(4-Fluorophenyl)-2-[3-(3-trifluoromethylbenzenesulfonylamino)-pyrrolidin-1-yl]acetamide] | 1680 | 
13 | (2S)N-Cyclopropyl-N-[1-(2-methylcarbonylpropylamino-4-methylpentanoyl)piperidin-3-yl]-3-trifluoromethylbenzenesulfonamide | 510 | 
14 | CC(C)CCN[C@@H](CC(C)C)C(=O)N1CCCC(N(C2CC2)S(=O)(=O)c2cccc(C(F)(F)F)c2)C1 (stereo partly drawn) [(2S)N-Cyclopropyl-N-{1-[2-(3-methylbutyl)amino-4-methylpentanoyl]piperidin-3-yl}-3-trifluoromethylbenzenesulfonamide] | 360 | 
15 | O=S(=O)(c1cccc(C(F)(F)F)c1)N(C1CC1)C1CCCN(CCCN(c2ccc(F)cc2)c2ccc(F)cc2)C1 (stereo not drawn) [N-Cyclopropyl-N-(1-{3-[bis-(4-fluorophenyl)amino]propyl}piperidin-3-yl)-3-trifluoromethylbenzenesulfonamide] | 2220 | 
16 | CC(C)NCCC(=O)N1CCCC(N(C2CC2)S(=O)(=O)c2cccc(C(F)(F)F)c2)C1 (stereo not drawn) [N-Cyclopropyl-N-[1-(3-isopropylaminopropionyl)piperidin-3-yl]-3-trifluoromethylbenzenesulfonamide] | 630 | 8770
17 | COCCNCCC(=O)N1CCCC(N(C2CC2)S(=O)(=O)c2cccc(C(F)(F)F)c2)C1 (stereo not drawn) [N-Cyclopropyl-N-{1-[3-(2-methoxyethylamino)propionyl]piperidin-3-yl}-3-trifluoromethylbenzenesulfonamide] | 810 | 10000 to 20000
18 | CC(C)CNCC(=O)N1CCCC(N(C2CC2)S(=O)(=O)c2cccc(C(F)(F)F)c2)C1 (stereo not drawn) [N-Cyclopropyl-N-[1-(2-isobutylaminoacetyl)piperidin-3-yl]-3-trifluoromethylbenzenesulfonamide] | 690 | 5750
